{"source": "patent US12582625B2", "about": "“Methods for treating neuroblastoma” (priority 2015, dated 2026)", "key": {"[1]": {"conditions": "adults; cited from earlier work"}, "NB cells": {"test_system": "NB cells", "conditions": "DFMO in the 50-150 μM range; cited from earlier work"}, "[2]": {"assay": "NMTRC003 phase II prevention trial: adverse events", "type": "in vivo", "procedure": "Dosing diaries were required to be completed for each cycle. […] The primary endpoint was Event Free Survival (EFS); secondary objectives included Overall Survival (OS) and safety. EFS was defined as the period from the first day of administration of study drug to the first occurrence of relapse or death, and OS was defined as the first day of administration of study drug until death; subjects without an event were censored at the time of last contact. Safety analysis was conducted on all subjects who received at least one dose of study drug, and included the frequency, grading, expectedness and attribution of all adverse events as well as dose interruptions, dose reductions, and treatment discontinuation."}, "tumor putrescine levels": {"test_system": "tumor putrescine levels", "conditions": "eflornithine infusion, without suppressing peripheral platelet counts; cited from earlier work"}, "[3]": {"conditions": "human, in vivo, 27 4-week cycles"}}, "data": [{"smiles": "NCCCC(N)(C(=O)O)C(F)F", "note": "(centres unmarked) [DFMO, 2,5-diamino-2-(difluoromethyl) pentanoic acid]", "values": [{"measurement": "elimination half-life of DFMO", "setting": "[1]", "result": "2 to 4", "unit": "h"}, {"measurement": "killing of NB cells", "setting": "NB cells", "result": "do not kill NB cells"}, {"measurement": "patients with grade 2-3 transaminitis (most common toxicity)", "setting": "[2]; DFMO 500-1000 mg/m^2 BID", "result": "< 10", "unit": "%"}, {"measurement": "tolerability", "setting": "[2]; DFMO 500-1000 mg/m^2 BID", "result": "well tolerated"}, {"measurement": "ALT elevation Grade 2, patients (%)", "setting": "[2]; Stratum 1, n = 94", "result": "3 (3%)"}, {"measurement": "ALT elevation Grade 3, patients (%)", "setting": "[2]; Stratum 1, n = 94", "result": "5 (5%)"}, {"measurement": "ALT elevation Grade 4, patients (%)", "setting": "[2]; Stratum 1, n = 94", "result": 0}, {"measurement": "ALT elevation Grade 5, patients (%)", "setting": "[2]; Stratum 1, n = 94", "result": 0}, {"measurement": "AST elevation Grade 2, patients (%)", "setting": "[2]; Stratum 1, n = 94", "result": "3 (3%)"}, {"measurement": "AST elevation Grade 3, patients (%)", "setting": "[2]; Stratum 1, n = 94", "result": "4 (4%)"}, {"measurement": "AST elevation Grade 4, patients (%)", "setting": "[2]; Stratum 1, n = 94", "result": 0}, {"measurement": "AST elevation Grade 5, patients (%)", "setting": "[2]; Stratum 1, n = 94", "result": 0}, {"measurement": "Agitation Grade 2, patients (%)", "setting": "[2]; Stratum 1, n = 94", "result": "1 (1%)"}, {"measurement": "Agitation Grade 3, patients (%)", "setting": "[2]; Stratum 1, n = 94", "result": 0}, {"measurement": "Agitation Grade 4, patients (%)", "setting": "[2]; Stratum 1, n = 94", "result": 0}, {"measurement": "Agitation Grade 5, patients (%)", "setting": "[2]; Stratum 1, n = 94", "result": 0}, {"measurement": "Alopecia Grade 2, patients (%)", "setting": "[2]; Stratum 1, n = 94", "result": "1 (1%)"}, {"measurement": "Alopecia Grade 3, patients (%)", "setting": "[2]; Stratum 1, n = 94", "result": 0}, {"measurement": "Alopecia Grade 4, patients (%)", "setting": "[2]; Stratum 1, n = 94", "result": 0}, {"measurement": "Alopecia Grade 5, patients (%)", "setting": "[2]; Stratum 1, n = 94", "result": 0}, {"measurement": "Anemia Grade 2, patients (%)", "setting": "[2]; Stratum 1, n = 94", "result": "4 (4%)"}, {"measurement": "Anemia Grade 3, patients (%)", "setting": "[2]; Stratum 1, n = 94", "result": 0}, {"measurement": "Anemia Grade 4, patients (%)", "setting": "[2]; Stratum 1, n = 94", "result": 0}, {"measurement": "Anemia Grade 5, patients (%)", "setting": "[2]; Stratum 1, n = 94", "result": 0}, {"measurement": "Anorexia Grade 2, patients (%)", "setting": "[2]; Stratum 1, n = 94", "result": "1 (1%)"}, {"measurement": "Anorexia Grade 3, patients (%)", "setting": "[2]; Stratum 1, n = 94", "result": 0}, {"measurement": "Anorexia Grade 4, patients (%)", "setting": "[2]; Stratum 1, n = 94", "result": 0}, {"measurement": "Anorexia Grade 5, patients (%)", "setting": "[2]; Stratum 1, n = 94", "result": 0}, {"measurement": "Diarrhea Grade 2, patients (%)", "setting": "[2]; Stratum 1, n = 94", "result": "5 (5%)"}, {"measurement": "Diarrhea Grade 3, patients (%)", "setting": "[2]; Stratum 1, n = 94", "result": 0}, {"measurement": "Diarrhea Grade 4, patients (%)", "setting": "[2]; Stratum 1, n = 94", "result": 0}, {"measurement": "Diarrhea Grade 5, patients (%)", "setting": "[2]; Stratum 1, n = 94", "result": 0}, {"measurement": "Fever Grade 2, patients (%)", "setting": "[2]; Stratum 1, n = 94", "result": "2 (2%)"}, {"measurement": "Fever Grade 3, patients (%)", "setting": "[2]; Stratum 1, n = 94", "result": 0}, {"measurement": "Fever Grade 4, patients (%)", "setting": "[2]; Stratum 1, n = 94", "result": 0}, {"measurement": "Fever Grade 5, patients (%)", "setting": "[2]; Stratum 1, n = 94", "result": 0}, {"measurement": "Hearing Loss Grade 2, patients (%)", "setting": "[2]; Stratum 1, n = 94", "result": "2 (2%)"}, {"measurement": "Hearing Loss Grade 3, patients (%)", "setting": "[2]; Stratum 1, n = 94", "result": "4 (4%)"}, {"measurement": "Hearing Loss Grade 4, patients (%)", "setting": "[2]; Stratum 1, n = 94", "result": 0}, {"measurement": "Hearing Loss Grade 5, patients (%)", "setting": "[2]; Stratum 1, n = 94", "result": 0}, {"measurement": "Hypoglycemia Grade 2, patients (%)", "setting": "[2]; Stratum 1, n = 94", "result": 0}, {"measurement": "Hypoglycemia Grade 3, patients (%)", "setting": "[2]; Stratum 1, n = 94", "result": 0}, {"measurement": "Hypoglycemia Grade 4, patients (%)", "setting": "[2]; Stratum 1, n = 94", "result": "1 (1%)"}, {"measurement": "Hypoglycemia Grade 5, patients (%)", "setting": "[2]; Stratum 1, n = 94", "result": 0}, {"measurement": "Hypokalemia Grade 2, patients (%)", "setting": "[2]; Stratum 1, n = 94", "result": 0}, {"measurement": "Hypokalemia Grade 3, patients (%)", "setting": "[2]; Stratum 1, n = 94", "result": "2 (2%)"}, {"measurement": "Hypokalemia Grade 4, patients (%)", "setting": "[2]; Stratum 1, n = 94", "result": 0}, {"measurement": "Hypokalemia Grade 5, patients (%)", "setting": "[2]; Stratum 1, n = 94", "result": 0}, {"measurement": "INR Elevated Grade 2, patients (%)", "setting": "[2]; Stratum 1, n = 94", "result": "1 (1%)"}, {"measurement": "INR Elevated Grade 3, patients (%)", "setting": "[2]; Stratum 1, n = 94", "result": 0}, {"measurement": "INR Elevated Grade 4, patients (%)", "setting": "[2]; Stratum 1, n = 94", "result": 0}, {"measurement": "INR Elevated Grade 5, patients (%)", "setting": "[2]; Stratum 1, n = 94", "result": 0}, {"measurement": "Infection, Other Grade 5, patients (%)", "setting": "[2]; Stratum 1, n = 94", "result": 0}, {"measurement": "Infection, middle ear Grade 5, patients (%)", "setting": "[2]; Stratum 1, n = 94", "result": 0}, {"measurement": "Neutrophil count decrease Grade 2, patients (%)", "setting": "[2]; Stratum 1, n = 94", "result": "4 (4%)"}, {"measurement": "Neutrophil count decrease Grade 3, patients (%)", "setting": "[2]; Stratum 1, n = 94", "result": "3 (3%)"}, {"measurement": "Neutrophil count decrease Grade 4, patients (%)", "setting": "[2]; Stratum 1, n = 94", "result": 0}, {"measurement": "Neutrophil count decrease Grade 5, patients (%)", "setting": "[2]; Stratum 1, n = 94", "result": 0}, {"measurement": "Pain Grade 2, patients (%)", "setting": "[2]; Stratum 1, n = 94", "result": "2 (2%)"}, {"measurement": "Pain Grade 3, patients (%)", "setting": "[2]; Stratum 1, n = 94", "result": 0}, {"measurement": "Pain Grade 4, patients (%)", "setting": "[2]; Stratum 1, n = 94", "result": 0}, {"measurement": "Pain Grade 5, patients (%)", "setting": "[2]; Stratum 1, n = 94", "result": 0}, {"measurement": "Platelet count decrease Grade 2, patients (%)", "setting": "[2]; Stratum 1, n = 94", "result": "2 (2%)"}, {"measurement": "Platelet count decrease Grade 3, patients (%)", "setting": "[2]; Stratum 1, n = 94", "result": 0}, {"measurement": "Platelet count decrease Grade 4, patients (%)", "setting": "[2]; Stratum 1, n = 94", "result": 0}, {"measurement": "Platelet count decrease Grade 5, patients (%)", "setting": "[2]; Stratum 1, n = 94", "result": 0}, {"measurement": "Post Nasal Drip Grade 2, patients (%)", "setting": "[2]; Stratum 1, n = 94", "result": "1 (1%)"}, {"measurement": "Post Nasal Drip Grade 3, patients (%)", "setting": "[2]; Stratum 1, n = 94", "result": 0}, {"measurement": "Post Nasal Drip Grade 4, patients (%)", "setting": "[2]; Stratum 1, n = 94", "result": 0}, {"measurement": "Post Nasal Drip Grade 5, patients (%)", "setting": "[2]; Stratum 1, n = 94", "result": 0}, {"measurement": "Rash Grade 2, patients (%)", "setting": "[2]; Stratum 1, n = 94", "result": "1 (1%)"}, {"measurement": "Rash Grade 3, patients (%)", "setting": "[2]; Stratum 1, n = 94", "result": 0}, {"measurement": "Rash Grade 4, patients (%)", "setting": "[2]; Stratum 1, n = 94", "result": 0}, {"measurement": "Rash Grade 5, patients (%)", "setting": "[2]; Stratum 1, n = 94", "result": 0}, {"measurement": "Weight Gain Grade 2, patients (%)", "setting": "[2]; Stratum 1, n = 94", "result": "1 (1%)"}, {"measurement": "Weight Gain Grade 3, patients (%)", "setting": "[2]; Stratum 1, n = 94", "result": 0}, {"measurement": "Weight Gain Grade 4, patients (%)", "setting": "[2]; Stratum 1, n = 94", "result": 0}, {"measurement": "Weight Gain Grade 5, patients (%)", "setting": "[2]; Stratum 1, n = 94", "result": 0}, {"measurement": "White blood cell decreased Grade 2, patients (%)", "setting": "[2]; Stratum 1, n = 94", "result": "2 (2%)"}, {"measurement": "White blood cell decreased Grade 3, patients (%)", "setting": "[2]; Stratum 1, n = 94", "result": 0}, {"measurement": "White blood cell decreased Grade 4, patients (%)", "setting": "[2]; Stratum 1, n = 94", "result": 0}, {"measurement": "White blood cell decreased Grade 5, patients (%)", "setting": "[2]; Stratum 1, n = 94", "result": 0}, {"measurement": "patients with an increase in hearing loss", "setting": "[2]; among patients with pre-existing hearing loss, all returned to baseline after holding medication", "result": 4, "unit": "patients"}, {"measurement": "Infection, Other Grade 2, patients (%)", "setting": "[2]; [3]", "result": "2 (2%)"}, {"measurement": "Infection, Other Grade 3, patients (%)", "setting": "[2]; [3]", "result": 0}, {"measurement": "Infection, Other Grade 4, patients (%)", "setting": "[2]; [3]", "result": 0}, {"measurement": "Infection, middle ear Grade 2, patients (%)", "setting": "[2]; [3]", "result": "2 (2%)"}, {"measurement": "Infection, middle ear Grade 3, patients (%)", "setting": "[2]; [3]", "result": 0}, {"measurement": "Infection, middle ear Grade 4, patients (%)", "setting": "[2]; [3]", "result": 0}, {"measurement": "population that did not report any related adverse events", "setting": "[2]; over 2 years", "result": 67, "unit": "%"}, {"measurement": "serious adverse events (SAE)", "setting": "[2]; whole study", "result": "only one SAE involving hypoglycemia"}, {"measurement": "decrease in tumor putrescine levels", "setting": "tumor putrescine levels", "result": 90, "unit": "%"}]}]}
